Results on 7 compounds are retold here after patent US12478627B2, “Irsogladine for the treatment of eosinophilic gastrointestinal diseases” (EPITHELION SCIENCE BIOTECH, S.L., priority 2019, dated 2025).

Series [1] deals with EoE and EoGIDs. The settings on record: cited from earlier work.
In series [2] the test system is Eosinophilic Esophagitis (EoE). Description: Example 2: oral Irsogladine maleate in patient three with eosinophilic esophagitis. In kind it is in vivo, human. The protocol: […] […] […] Pain tended to increase while eating.
Endoscopic procedures were performed. Colonoscopy of the entire colon and 20 cm of the distal ileum were informed as normal and staged biopsies were taken. […] Biopsies were taken in all upper gastrointestinal tract organs examined. Both, clinical symptoms and endoscopic findings are in accordance with the clinical and endoscopic criteria of EoE (Lucendo A J, Molina-Infante J, Arias Á, et al. Guidelines on eosinophilic esophagitis: evidence-based statements and recommendations for diagnosis and management in children and adults. United European Gastroenterol J. 2017; 5 (3):335-358; Dellon E S, Liacouras C A, Molina-Infante J, et al. Updated International Consensus Diagnostic Criteria for Eosinophilic Esophagitis: Proceedings of the AGREE Conference. Gastroenterology. 2018; 155 (4):1022-1033.e10.; Lipowska AM, Kavitt R T. Current Diagnostic and Treatment Strategies for Eosinophilic Esophagitis. Gastroenterol Hepatol (N Y) 2017; 13 (9):527-535; Hirano I, Moy N, Heckman M G, Thomas C S, Gonsalves N, Achem S R. Endoscopic assessment of the oesophageal features of eosinophilic oesophagitis: validation of a novel classification and grading system. Gut. 2013; 62 (4):489-495; Muir A B, Merves J, Liacouras C A. Role of Endoscopy in Diagnosis and Management of Pediatric Eosinophilic Esophagitis. Gastrointest Endosc Clin N Am. 2016; 26 (1):187-200).
These biopsies meet the diagnostic criteria of Eosinophilic Esophagitis (Lee S, de Boer W B, Naran A, et al. More than just counting eosinophils: proximal oesophageal involvement and subepithelial sclerosis are major diagnostic criteria for eosinophilic oesophagitis. J Clin Pathol. 2010; 63 (7):644-647; Collins M H, Capocelli K, Yang G Y. Eosinophilic Gastrointestinal Disorders Pathology. Front Med (Lausanne). 2018; 4: 261).
Upon confirming the diagnosis with Eosinophilic Esophagitis, JPV was treated with 4 mg of oral Irsogladine maleate twice a day for 8 weeks, without following any other treatment such as food elimination or pharmaceutical treatments (i.e. corticosteroids or monoclonal antibodies).
Due to the therapeutic efficacy shown by Irsogladine administration, it was decided to prolong JPV treatment for an additional 24 weeks (in total 32 weeks), at the same dose, with regular telephone and presential checking of symptoms and general health. […] Esophageal biopsies were taken showing no excess of eosinophil infiltrate (<10 cells/hpf) (FIGS. 12 and 13). There was neither peripheral blood eosinophilia (315 cells mm^3) nor anemia or any biological signs of inflammation.

Series [3] relates to eosinophilic jejunitis. Description: Example 3: Irsogladine maleate in patient two with mild eosinophilic jejunitis. In kind it is in vivo, human.
Series [4] deals with Eosinophilic Esophagitis (EoE). Description: Example 1: oral Irsogladine maleate in patient one with active eosinophilic esophagitis. In kind it is in vivo, human. To be noted: 12 weeks. The text has this: […] […] […] A esophageal pH-metric study, performed without PPI treatment, was informed as normal. […] Without other type of examination, JCC was empirically treated in three occasions with Budesonide.
When seen, JCC was symptomatic, with difficulties to swallow food. Because of the symptoms and clinical history, Eosinophilic Esophagitis was suspected (Lucendo A J, et al. supra; Dellon E S, et al. supra; Lipowska A M, Kavitt R T. Current Diagnostic and Treatment Strategies for Eosinophilic Esophagitis. Gastroenterol Hepatol (N Y) 2017; 13(9):527-535). […] They had neither blood nor urine biological tests abnormalities. […] An Enteral Magnetic Resonance Imaging was informed as normal, without inflammatory features, increased wall thickness or strictures in the gastro-intestinal tract.
Simultaneously, biopsies were taken in all organs examined. […] Biopsies met the histological criteria of active eosinophil esophagitis (Lee S, de Boer W B, Naran A, et al. More than just counting eosinophils: proximal oesophageal involvement and subepithelial sclerosis are major diagnostic criteria for eosinophilic oesophagitis. J Clin Pathol. 2010; 63 (7):644-647; Collins M H, Capocelli K, Yang G Y. Eosinophilic Gastrointestinal Disorders Pathology. Front Med (Lausanne). 2018; 4:261). Gastric, duodenal and upper jejunal biopsies were reported as normal.
Consequently, JJC was diagnosed with active eosinophlic esophagitis. At this point in time, JJC was treated with oral Irsogladine maleate tablets, 2 mg twice a day during 12 weeks, exempting JJC from other therapies.
Also, at end of the Irsogladine treatment, endoscopic examination was repeated using Narrow Band Imaging (NBI). This technique is able to detect minimal changes in mucosa surface.

The mark [5] stands for this setting: patients with EoE or EoGIDs, literature reports.
The mark [6] stands for this setting: 4 mg twice a day, 8 weeks, listed as Irsogladine Maleate.
Setting [7] is: 2 mg twice a day, listed as Irsogladine Maleate.

Entries after “also recorded” stand apart in the source; their conditions may differ. Where a name gives a salt, the structure may show the parent alone. Where only a bound is given, the exact number is not on record here.

Consider `Cn1cnc([N+](=O)[O-])c1Sc1ncnc2nc[nH]c12` [Azathioprine], for which the side effects result in series [1] (setting [5]) is reported as “not free of side effects”. Besides, in series [1] (two reports, small number of cases of EoE and EoGE), the efficacy entry is recorded as “has shown efficacy”.
As for `Nc1nc(N)nc(-c2cc(Cl)ccc2Cl)n1` [Irsogladine maleate], the “endoscopic aspect of esophageal mucosa” value in series [2] (setting [6]) is “Esophageal linear furrows, white plaques and a tendency to trachealization have disappeared”; in series [2] (32 weeks of treatment, listed as Irsogladine Maleate) it was “normal”. For the same compound, the “histologic features of esophageal biopsy (eosinophil infiltration, microabscesses, intercellular spaces)” value in series [2] (setting [6]) is “absence of eosinophil infiltration”. For the same compound, in series [2] (32 weeks of treatment), the “histological aspect of esophageal mucosa” value is “strictly normal”. Also, the symptoms result in series [3] (4 mg twice a day, after 2 weeks) is reported as “symptoms improved”; in series [3] (4 mg twice a day, after 4 weeks) it was “fully asymptomatic”; in series [3] (after 6 months maintenance treatment, 4 mg once a day), “remained asymptomatic”. In addition, in series [3] (after 6 months treatment), the gastrointestinal upper endoscopy entry is on record as “considered normal; also recorded: normal looking upper jejunal mucosa”. Besides, in series [3] (after six months of daily treatment), the “histology of upper jejunal mucosa biopsy” value was “normal looking villi and no increase of eosinophilic infiltration”. In addition, the “endoscopic examination of esophageal mucosa (Narrow Band Imaging)” value in series [4] (setting [7]) was “Mucosa white plaques and circular trachealization disappeared”. The “histologic features of esophageal biopsy (eosinophil infiltration, intercellular spaces)” value in series [4] (setting [7]) was “Eosinophil infiltration has clearly reduced, and intercellular spaces are back to normal”.
Regarding `Nc1nc(N)nc(-c2cc(Cl)ccc2Cl)n1` [Irsogladine, 6-(2,5-Dichlorophenyl)-1,3,5-triazine-2,4-diamine], in series [2] (4 mg oral twice a day, 8 weeks, before treatment more than 50 per HPF), the “eosinophil counts in esophageal biopsy” value is “less than 15 per HPF”. In series [2] (4 mg twice a day, 8 weeks), the disease remission result is recorded as “therapeutically effective to induce remission”; the “endoscopic aspect of esophageal mucosa” value was “endoscopically normal”; the “histologic features of esophageal biopsy (eosinophil infiltration, microabscesses, intercellular spaces)” value was “negligible presence of eosinophil infiltration; also recorded: no eosinophilic microabscesses and absence of intercellular dilated spaces”; the side effects entry is recorded as “No side effects”. Further, the symptoms entry in series [2] (4 mg twice a day, 8 weeks) is listed as “completely disappeared”. In addition, the “eosinophil infiltrate in esophageal biopsies” value in series [2] (4 mg twice a day, additional 24 weeks (in total 32 weeks)) was under 10 cells/hpf. In addition, in series [2] (32 weeks of treatment), the “endoscopic aspect of esophageal mucosa” value is “normal looking mucosa” and the “side effects of long-term administration” value is “No side effects”. In series [4] (2 mg twice a day), the disease remission result was “therapeutically effective in inducing disease remission”; the “endoscopic examination of esophageal mucosa (Narrow Band Imaging)” value is “esophageal mucosal furrows, white plaques and trachealization lesions had disappeared”; the “histologic features of esophageal biopsy (eosinophil infiltration, intercellular spaces)” value is recorded as “no dilation of intercellular spaces”; the side effects result is on record as “No side effects”. For the same compound, the symptoms result in series [4] (2 mg twice a day) is “Symptoms had disappeared”. Further, the “eosinophil counts in biopsies of the esophageal mucosa” value in series [4] (oral tablets 2 mg twice a day, before treatment more than 30 cells per HPF, EoE threshold 15 counts per HPF) is given as “less than 5 per HPF”.
As for `CCN(CCCCOC(=O)c1ccc(OC)c(OC)c1)C(C)Cc1ccc(OC)cc1.Cl` (stereo not drawn) [Mebeverine Chlorhydrate], the “response of symptoms to earlier symptomatic treatment” value in series [3] (Omeprazole 20 mg twice a day and Mebeverine Chlorhydrate 200 mg twice daily, long periods, before Irsogladine) was “no improvement”.
With Benralizumab: mAb against IL-5 receptor, in series [1] (setting [5]), the clinical symptoms result is on record as “did not correspond with clinical improvement” and the tissue eosinophil infiltrate entry is listed as “significant reduction”.
With Infliximab: Anti-TNFα mAb, in series [1] (setting [5]), the clinical symptoms result is listed as “have not shown efficacy” and the tissue eosinophil infiltrate result is “have not shown efficacy”.
For the compound “Omalizumab: anti-IgE, targets a highly affinity receptor binding site of human IgE”, in series [1] (eosinophilic esophagitis, literature reports), the “induction or maintenance of disease remission” value was “failed to control or induce remission”. In addition, in series [1] (setting [5]), the clinical symptoms entry is given as “variable effects” and the tissue eosinophil infiltrate result is recorded as “non-significant decrease”.
